In article PMC7774954, “Interactomic affinity profiling by holdup assay: Acetylation and distal residues impact the PDZome-binding specificity of PTEN phosphatase” (PLoS ONE, 2020):
*1 amine or outer side, *2 acyl side, *3 side chain or, on linkers, in order; H or OH if unused. Where a SMILES comes first, the peptide text is derived from it. The star is where a group is joined. X1 = O=C(CCCC[C@@H]1SC[C@@H]2NC(=O)N[C@@H]21)NCCCOCCOCCOCCCN*; Suc = O=C(CCC(=O)[*:2])[*:1]

Key:
AHNAK2-1 = assay: Holdup assay, AHNAK2-1; assay type: binding, human
APBA3-2 = assay: Holdup assay, APBA3-2; assay type: binding, human
ARHGAP21-1 = assay: Holdup assay, ARHGAP21-1; assay type: binding, human
CASK-1 = assay: Holdup assay, CASK-1; assay type: binding, human
DFNB31-3 = target: T1, DFNB31-3 (Homo sapiens, UniProt Q9P202); assay: Holdup assay, DFNB31-3; assay type: binding
T1 sequence (Q9P202 1-907): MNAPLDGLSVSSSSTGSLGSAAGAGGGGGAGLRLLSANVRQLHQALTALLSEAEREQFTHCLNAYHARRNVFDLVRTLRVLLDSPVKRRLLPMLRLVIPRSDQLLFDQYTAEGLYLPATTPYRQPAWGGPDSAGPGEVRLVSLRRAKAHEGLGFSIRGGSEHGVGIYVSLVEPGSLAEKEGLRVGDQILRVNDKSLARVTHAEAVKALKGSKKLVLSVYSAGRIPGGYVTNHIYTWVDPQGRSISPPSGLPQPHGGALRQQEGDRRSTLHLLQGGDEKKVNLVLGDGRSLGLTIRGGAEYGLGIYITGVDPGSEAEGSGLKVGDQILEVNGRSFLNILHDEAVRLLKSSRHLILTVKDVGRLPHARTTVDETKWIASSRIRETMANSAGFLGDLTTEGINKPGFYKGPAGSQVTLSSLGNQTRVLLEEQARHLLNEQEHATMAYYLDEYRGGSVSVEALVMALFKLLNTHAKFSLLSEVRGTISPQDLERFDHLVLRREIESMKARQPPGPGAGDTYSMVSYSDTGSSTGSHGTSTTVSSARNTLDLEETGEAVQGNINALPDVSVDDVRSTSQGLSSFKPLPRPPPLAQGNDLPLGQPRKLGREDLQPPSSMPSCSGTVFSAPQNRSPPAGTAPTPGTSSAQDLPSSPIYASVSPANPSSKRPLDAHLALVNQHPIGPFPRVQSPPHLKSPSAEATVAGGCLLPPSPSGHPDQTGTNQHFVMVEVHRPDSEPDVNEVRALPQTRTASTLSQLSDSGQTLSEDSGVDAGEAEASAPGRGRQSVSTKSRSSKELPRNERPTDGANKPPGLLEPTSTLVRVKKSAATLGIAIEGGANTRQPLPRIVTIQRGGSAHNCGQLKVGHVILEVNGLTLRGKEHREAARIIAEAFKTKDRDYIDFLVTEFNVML

DLG5-4 = assay: Holdup assay, DLG5-4; assay type: binding, human
FRMPD2-1 = assay: Holdup assay, FRMPD2-1; assay type: binding, human
GIPC1-1 = assay: Holdup assay, GIPC1-1; assay type: binding, human
GOPC-1 = GOPC-1 (Homo sapiens, UniProt Q9HD26); assay: Holdup assay, GOPC-1; assay type: binding
GORASP1-1 = GORASP1-1 (Homo sapiens, UniProt Q9BQQ3); assay: Holdup assay, GORASP1-1; assay type: binding
GORASP1-1, sequence (Q9BQQ3 2-440): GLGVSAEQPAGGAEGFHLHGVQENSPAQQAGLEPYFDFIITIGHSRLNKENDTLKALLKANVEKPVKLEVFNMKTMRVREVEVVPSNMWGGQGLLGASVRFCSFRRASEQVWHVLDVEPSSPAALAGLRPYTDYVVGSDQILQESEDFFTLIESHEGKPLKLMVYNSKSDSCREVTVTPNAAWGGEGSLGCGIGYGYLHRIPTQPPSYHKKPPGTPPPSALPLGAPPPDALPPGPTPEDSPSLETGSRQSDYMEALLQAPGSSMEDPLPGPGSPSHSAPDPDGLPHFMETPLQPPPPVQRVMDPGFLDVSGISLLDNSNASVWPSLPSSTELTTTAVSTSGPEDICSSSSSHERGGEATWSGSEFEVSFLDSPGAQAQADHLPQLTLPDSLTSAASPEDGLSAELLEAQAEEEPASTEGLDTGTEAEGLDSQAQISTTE

HTRA4-1 = assay: Holdup assay, HTRA4-1; assay type: binding, human
LIMK2-1 = target: T2, LIMK2-1 (Homo sapiens, UniProt P53671); assay: Holdup assay, LIMK2-1; assay type: binding
T2 sequence (P53671 152-239): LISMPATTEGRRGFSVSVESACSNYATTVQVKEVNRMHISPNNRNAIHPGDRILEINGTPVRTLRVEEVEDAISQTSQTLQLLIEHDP

LNX2-4 = assay: Holdup assay, LNX2-4; assay type: binding, human
MAGI1-6 = assay: Holdup assay, MAGI1-6; assay type: binding, human
MAGI2-4 = MAGI2-4 (Homo sapiens, UniProt Q86UL8); assay: Holdup assay, MAGI2-4; assay type: binding
MAGI2-4, sequence (Q86UL8 whole entry): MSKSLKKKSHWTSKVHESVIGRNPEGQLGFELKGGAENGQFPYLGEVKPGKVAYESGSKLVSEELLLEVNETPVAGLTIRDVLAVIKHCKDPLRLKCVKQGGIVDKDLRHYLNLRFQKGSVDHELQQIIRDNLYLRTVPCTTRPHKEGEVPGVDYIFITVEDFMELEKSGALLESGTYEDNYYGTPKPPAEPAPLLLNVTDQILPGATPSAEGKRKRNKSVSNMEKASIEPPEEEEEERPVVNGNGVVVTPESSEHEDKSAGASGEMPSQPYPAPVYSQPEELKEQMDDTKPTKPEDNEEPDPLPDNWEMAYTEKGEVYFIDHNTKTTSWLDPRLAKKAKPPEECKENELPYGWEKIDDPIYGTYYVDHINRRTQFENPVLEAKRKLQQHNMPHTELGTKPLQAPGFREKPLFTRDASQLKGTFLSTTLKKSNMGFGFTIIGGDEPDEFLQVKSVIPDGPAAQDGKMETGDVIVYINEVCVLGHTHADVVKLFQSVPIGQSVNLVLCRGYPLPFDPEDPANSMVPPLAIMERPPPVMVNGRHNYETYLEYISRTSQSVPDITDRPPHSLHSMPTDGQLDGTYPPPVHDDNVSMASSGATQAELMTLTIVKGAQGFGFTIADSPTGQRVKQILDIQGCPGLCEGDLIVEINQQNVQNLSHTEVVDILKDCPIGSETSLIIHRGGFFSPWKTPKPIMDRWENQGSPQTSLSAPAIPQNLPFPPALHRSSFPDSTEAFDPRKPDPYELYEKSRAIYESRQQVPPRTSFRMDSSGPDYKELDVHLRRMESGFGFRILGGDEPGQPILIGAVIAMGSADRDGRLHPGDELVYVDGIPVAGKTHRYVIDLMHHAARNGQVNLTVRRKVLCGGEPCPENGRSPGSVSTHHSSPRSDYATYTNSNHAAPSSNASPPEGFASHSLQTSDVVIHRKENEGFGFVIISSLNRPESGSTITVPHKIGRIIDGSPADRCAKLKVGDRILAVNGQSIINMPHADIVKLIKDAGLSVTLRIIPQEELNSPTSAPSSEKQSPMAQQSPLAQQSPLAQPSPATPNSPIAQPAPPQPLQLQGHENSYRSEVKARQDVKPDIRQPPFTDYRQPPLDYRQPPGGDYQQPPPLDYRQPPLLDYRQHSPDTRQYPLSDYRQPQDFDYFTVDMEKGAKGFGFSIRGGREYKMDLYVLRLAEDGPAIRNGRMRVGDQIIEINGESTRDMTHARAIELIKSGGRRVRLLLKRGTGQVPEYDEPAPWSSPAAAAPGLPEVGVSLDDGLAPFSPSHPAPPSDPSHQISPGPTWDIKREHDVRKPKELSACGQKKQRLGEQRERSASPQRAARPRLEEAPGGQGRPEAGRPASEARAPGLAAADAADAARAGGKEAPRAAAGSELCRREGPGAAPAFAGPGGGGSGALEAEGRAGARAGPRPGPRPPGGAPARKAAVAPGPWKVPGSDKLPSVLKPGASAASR

MAGI2-6 = MAGI2-6 (Homo sapiens, UniProt Q86UL8); assay: Holdup assay, MAGI2-6; assay type: binding
MAGI2-6, sequence (Q86UL8 1147-1229): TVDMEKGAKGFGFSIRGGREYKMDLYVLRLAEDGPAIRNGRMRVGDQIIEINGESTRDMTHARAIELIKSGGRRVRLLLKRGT

MAGI3-4 = assay: Holdup assay, MAGI3-4; assay type: binding, human
MPDZ-11 = MPDZ-11 (Homo sapiens, UniProt O75970); assay: Holdup assay, MPDZ-11; assay type: binding
MPDZ-11, sequence (O75970 whole entry): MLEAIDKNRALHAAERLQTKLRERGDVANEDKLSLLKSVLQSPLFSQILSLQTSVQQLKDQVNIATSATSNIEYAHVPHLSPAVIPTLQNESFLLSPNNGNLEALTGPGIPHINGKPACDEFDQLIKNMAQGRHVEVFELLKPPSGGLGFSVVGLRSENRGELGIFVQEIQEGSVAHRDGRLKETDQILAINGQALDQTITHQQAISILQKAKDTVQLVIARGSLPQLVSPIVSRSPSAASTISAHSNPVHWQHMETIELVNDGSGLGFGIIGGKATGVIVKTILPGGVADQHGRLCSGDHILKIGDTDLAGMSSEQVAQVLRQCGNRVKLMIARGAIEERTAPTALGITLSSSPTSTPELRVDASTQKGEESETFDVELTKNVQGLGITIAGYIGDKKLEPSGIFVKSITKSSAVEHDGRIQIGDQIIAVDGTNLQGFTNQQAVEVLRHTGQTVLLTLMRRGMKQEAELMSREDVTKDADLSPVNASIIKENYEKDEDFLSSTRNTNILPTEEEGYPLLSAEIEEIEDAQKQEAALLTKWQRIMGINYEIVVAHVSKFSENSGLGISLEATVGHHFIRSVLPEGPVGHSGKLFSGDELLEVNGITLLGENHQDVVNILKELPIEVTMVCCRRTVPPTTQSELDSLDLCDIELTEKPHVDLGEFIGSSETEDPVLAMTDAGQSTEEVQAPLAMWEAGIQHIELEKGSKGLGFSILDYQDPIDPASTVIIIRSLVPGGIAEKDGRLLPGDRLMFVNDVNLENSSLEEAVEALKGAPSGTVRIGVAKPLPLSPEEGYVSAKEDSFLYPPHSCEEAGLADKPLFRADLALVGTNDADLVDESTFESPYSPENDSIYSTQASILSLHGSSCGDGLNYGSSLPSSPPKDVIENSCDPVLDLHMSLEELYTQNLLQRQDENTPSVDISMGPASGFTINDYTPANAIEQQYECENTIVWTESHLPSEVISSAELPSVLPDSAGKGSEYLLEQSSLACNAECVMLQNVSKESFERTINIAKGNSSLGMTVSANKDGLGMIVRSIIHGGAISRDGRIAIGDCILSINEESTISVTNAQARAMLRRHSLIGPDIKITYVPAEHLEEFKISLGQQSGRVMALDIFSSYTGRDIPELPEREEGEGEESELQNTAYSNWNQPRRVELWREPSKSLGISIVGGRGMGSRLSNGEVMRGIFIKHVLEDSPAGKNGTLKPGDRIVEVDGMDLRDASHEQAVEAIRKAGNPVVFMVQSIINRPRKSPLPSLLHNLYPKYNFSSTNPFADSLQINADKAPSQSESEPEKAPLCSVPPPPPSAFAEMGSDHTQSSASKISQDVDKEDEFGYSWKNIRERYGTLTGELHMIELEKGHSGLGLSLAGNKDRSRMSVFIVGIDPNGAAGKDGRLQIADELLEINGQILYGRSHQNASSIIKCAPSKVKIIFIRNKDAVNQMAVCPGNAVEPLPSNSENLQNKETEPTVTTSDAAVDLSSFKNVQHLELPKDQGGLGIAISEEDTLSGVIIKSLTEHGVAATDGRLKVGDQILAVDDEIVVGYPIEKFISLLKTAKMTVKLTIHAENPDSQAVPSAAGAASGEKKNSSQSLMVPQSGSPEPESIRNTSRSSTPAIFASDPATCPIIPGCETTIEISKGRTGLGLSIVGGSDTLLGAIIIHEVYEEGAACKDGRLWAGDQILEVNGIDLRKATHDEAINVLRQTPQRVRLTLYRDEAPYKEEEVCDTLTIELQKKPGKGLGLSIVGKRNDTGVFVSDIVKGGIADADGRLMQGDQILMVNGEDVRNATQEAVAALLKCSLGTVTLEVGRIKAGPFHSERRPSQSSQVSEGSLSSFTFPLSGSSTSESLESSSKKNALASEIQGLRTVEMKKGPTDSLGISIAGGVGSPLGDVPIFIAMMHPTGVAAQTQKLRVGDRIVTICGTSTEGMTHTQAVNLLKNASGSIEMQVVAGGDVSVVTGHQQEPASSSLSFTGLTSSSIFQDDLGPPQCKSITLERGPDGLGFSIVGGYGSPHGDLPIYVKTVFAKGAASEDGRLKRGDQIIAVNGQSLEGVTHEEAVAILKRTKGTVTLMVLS

| SMILES | BI (AHNAK2-1) | LogKD (AHNAK2-1) | BI (APBA3-2) | LogKD (APBA3-2) | BI (ARHGAP21-1) | BI (DFNB31-3) | BI (DLG5-4) | BI (FRMPD2-1) | BI (GIPC1-1) | BI (GOPC-1) | Kd (GOPC-1) | BI (GORASP1-1) | BI (HTRA4-1) | BI (LIMK2-1) | BI (LNX2-4) | BI (MAGI1-6) | BI (MAGI2-4) | BI (MAGI2-6) | BI (MAGI3-4) | BI (MPDZ-11) | further results |
| --- | --- | --- | --- | --- | --- | --- | --- | --- | --- | --- | --- | --- | --- | --- | --- | --- | --- | --- | --- | --- | --- |
| CC[C@H](C)[C@H](NC(=O)[C@H](CCC(N)=O)NC(=O)[C@@H](NC(=O)[C@H](Cc1c[nH]cn1)NC(=O)[C@H](CCC(N)=O)NC(=O)[C@H](CC(=O)O)NC(=O)[C@H](CCC(=O)O)NC(=O)[C@H](CC(=O)O)NC(=O)CCC(=O)NCCCOCCOCCOCCCNC(=O)CCCC[C@@H]1SC[C@@H]2NC(=O)N[C@@H]21)[C@@H](C)O)C(=O)N[C@H](C(=O)N[C@@H](CCCCN)C(=O)N[C@H](C(=O)O)C(C)C)[C@@H](C)O [PTEN_11] | -0.026 | 3.519 | 0.086 | 3.519 | -0.072 | 0.089 | -0.07 | -0.044 | 0.042 | 0.26 | 93.8 µM | 0.037 | 0.062 | 0.05 | -0.124 | -0.04 | 0.06 | 0.176 | -0.092 | 0.021 | LogKD (ARHGAP21-1): 3.519; BI (CASK-1): -0.049; LogKD (CASK-1): 3.519; LogKD (DFNB31-3): 3.519; LogKD (DLG5-4): 3.519; LogKD (FRMPD2-1): 3.519; LogKD (GIPC1-1): 3.519; LogKD (GORASP1-1): 3.519; LogKD (HTRA4-1): 3.519; LogKD (LIMK2-1): 3.519; LogKD (LNX2-4): 3.519; LogKD (MAGI1-6): 3.519; LogKD (MAGI2-4): 3.519; LogKD (MAGI3-4): 3.519; LogKD (MPDZ-11): 3.519 |
| CC[C@H](C)[C@H](NC(=O)[C@H](CCC(N)=O)NC(=O)[C@@H](NC(=O)[C@H](Cc1c[nH]cn1)NC(=O)[C@H](CCC(N)=O)NC(=O)[C@H](CC(=O)O)NC(=O)[C@H](CCC(=O)O)NC(=O)[C@H](CC(=O)O)NC(=O)CCC(=O)NCCCOCCOCCOCCCNC(=O)CCCC[C@@H]1SC[C@@H]2NC(=O)N[C@@H]21)[C@@H](C)O)C(=O)N[C@H](C(=O)N[C@@H](CCCCNC(C)=O)C(=O)N[C@H](C(=O)O)C(C)C)[C@@H](C)O [PTEN_Ac] | 0.034 | 3.605 | 0.024 | 3.605 | 0.012 | 0.275 | -0.1 | -0.083 | 0.035 | 0.404 | 38.9 µM | 0.151 | -0.059 | -0.087 | 0.013 | 0.096 | 0.1 | 0.469 | -0.101 | 0.145 | LogKD (ARHGAP21-1): 3.605; BI (CASK-1): -0.102; LogKD (CASK-1): 3.605; Kd (DFNB31-3): 70.9 µM; LogKD (DLG5-4): 3.605; LogKD (FRMPD2-1): 3.605; LogKD (GIPC1-1): 3.605; LogKD (HTRA4-1): 3.605; LogKD (LIMK2-1): 3.605; LogKD (LNX2-4): 3.605; LogKD (MAGI1-6): 3.605; LogKD (MAGI2-4): 3.605; Kd (MAGI2-6): 29.6 µM; LogKD (MAGI3-4): 3.605 |
| CC[C@H](C)[C@H](NC(=O)[C@H](CCC(N)=O)NC(=O)[C@@H](NC(=O)[C@H](Cc1c[nH]cn1)NC(=O)[C@H](CCC(N)=O)NC(=O)[C@H](CC(=O)O)NC(=O)[C@H](CCC(=O)O)NC(=O)[C@H](CC(=O)O)NC(=O)CCC(=O)NCCCOCCOCCOCCCNC(=O)CCCC[C@@H]1SC[C@@H]2NC(=O)N[C@@H]21)[C@@H](C)O)C(=O)N[C@H](C(=O)N[C@@H](CCCNC(=N)N)C(=O)N[C@H](C(=O)O)C(C)C)[C@@H](C)O [PTEN_KR] ({X1-Suc}-DEDQHTQITRV-OH) | -0.009 | 3.655 | 0.086 | 3.655 | 0.074 | -0.014 | -0.107 | -0.015 | 0.02 | 0.45 | 28.4 µM | 0.122 | 0.004 | -0.042 | -0.045 | 0.051 | 0.116 | 0.358 | -0.011 | 0.02 | LogKD (ARHGAP21-1): 3.655; LogKD (CASK-1): 3.655; LogKD (DFNB31-3): 3.655; LogKD (DLG5-4): 3.655; LogKD (FRMPD2-1): 3.655; LogKD (GIPC1-1): 3.655; LogKD (HTRA4-1): 3.655; LogKD (LIMK2-1): 3.655; LogKD (LNX2-4): 3.655; LogKD (MAGI1-6): 3.655; Kd (MAGI2-6): 42.3 µM; LogKD (MAGI3-4): 3.655; LogKD (MPDZ-11): 3.655 |
| CC[C@H](C)[C@H](NC(=O)[C@H](CCC(N)=O)NC(=O)[C@@H](NC(=O)[C@H](Cc1c[nH]cn1)NC(=O)[C@H](CCC(N)=O)NC(=O)[C@H](CC(=O)O)NC(=O)[C@H](CCC(=O)O)NC(=O)[C@H](CC(=O)O)NC(=O)[C@H](Cc1ccccc1)NC(=O)[C@@H]1CCCN1C(=O)CCC(=O)NCCCOCCOCCOCCCNC(=O)CCCC[C@@H]1SC[C@@H]2NC(=O)N[C@@H]21)[C@@H](C)O)C(=O)N[C@H](C(=O)N[C@@H](CCCCN)C(=O)N[C@H](C(=O)O)C(C)C)[C@@H](C)O [PTEN_13] ({X1-Suc}-PFDEDQHTQITKV-OH) |  |  | 0.046 |  | 0.028 | 0.061 | -0.028 | -0.07 | -0.02 | 0.199 | 65.2 µM | 0.076 | 0.011 | 0.152 | 0.093 | 0.072 | -0.036 | 0.236 | -0.112 | 0.012 | BI (CASK-1): -0.07; LogKD (DFNB31-3): 3.826; LogKD (GORASP1-1): 3.826; LogKD (MAGI2-4): 3.826; Kd (MAGI2-6): 52 µM; LogKD (MPDZ-11): 3.826 |
